Assay results as given in PubChem BioAssay AID1963424 (Molecular Pharmacology Branch, DTP, NCI, 2024).
Several values for one entry are separate records, joined by “and”; a condition that tells them apart may be missing. Equal values may be shown once.

Tested on: 327498-153-R-J2-PDC complex spheroid growth, % test/control
Test: Anticancer human tumor 327498-153-R-J2-PDC patient-derived uterine carcinosarcoma cell line growth inhibition [Asc]
Settings: for viability, T/C: stronger effect = lower value
In short: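 Complex solid-tumor spheroids incorporating human endothelial and mesenchymal stem cells received single agents or combinations over half-log dilution ranges anchored to clinical Cmax.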

[1] = curve of first compound, second compound 0.1 µM
[2] = curve of first compound, second compound 0.316 µM
[3] = curve of first compound, second compound 1 µM
[4] = curve of first compound, second compound 3.16 µM
[5] = curve of first compound, second compound 10 µM
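Further: spheroids exposed to compound for 7 days after 3 days of growth.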
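Wherever viability, T/C is given: 100% = DMSO vehicle control wells.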

Compound: COc1c(OCCCN2CCOCC2)ccc2c3n(c(=NC(=O)c4cnc(N)nc4)nc12)CCN3 + CCN1C(C(=O)NC23CCC(C(=O)O)(CC2)CC3)C(c2cccc(Cl)c2F)C2(C(=O)Nc3cc(Cl)ccc32)C12CCCCC2
- IC50 (curve of first compound, second compound 0.03 µM): 81.8 nM
- IC50 (curve of first compound, second compound 0.0949 µM): 33.5 nM
- IC50 (curve of first compound, second compound 0.3 µM): < 3.16 nM
- IC50 (curve of first compound, second compound 0.949 µM): < 3.16 nM
- IC50 (curve of first compound, second compound 3 µM): < 3.16 nM
- viability, T/C (second compound 0.03 µM, first compound 0.00316 µM): 84.5%
- viability, T/C (second compound 0.03 µM, first compound 0.01 µM): 90.5%
- viability, T/C (second compound 0.03 µM, first compound 0.0316 µM): 76.5%
- viability, T/C (second compound 0.03 µM, first compound 0.1 µM): 41.8%
- viability, T/C (second compound 0.03 µM, first compound 0.316 µM): 21.1%
- viability, T/C (second compound 0.03 µM, first compound 1 µM): 5.21%
- viability, T/C (second compound 0.0949 µM, first compound 0.00316 µM): 80.3%
- viability, T/C (second compound 0.0949 µM, first compound 0.01 µM): 73.3%
- viability, T/C (second compound 0.0949 µM, first compound 0.0316 µM): 50.4%
- viability, T/C (second compound 0.0949 µM, first compound 0.1 µM): 25.6%
- viability, T/C (second compound 0.0949 µM, first compound 0.316 µM): 12.3%
- viability, T/C (second compound 0.0949 µM, first compound 1 µM): 2.62%
- viability, T/C (second compound 0.3 µM, first compound 0.00316 µM): 40.1%
- viability, T/C (second compound 0.3 µM, first compound 0.01 µM): 33.8%
- viability, T/C (second compound 0.3 µM, first compound 0.0316 µM): 24.4%
- viability, T/C (second compound 0.3 µM, first compound 0.1 µM): 10.8%
- viability, T/C (second compound 0.3 µM, first compound 0.316 µM): 6.23%
- viability, T/C (second compound 0.3 µM, first compound 1 µM): 0.74%
- viability, T/C (second compound 0.949 µM, first compound 0.00316 µM): 12.2%
- viability, T/C (second compound 0.949 µM, first compound 0.01 µM): 9.4%
- viability, T/C (second compound 0.949 µM, first compound 0.0316 µM): 5.86%
- viability, T/C (second compound 0.949 µM, first compound 0.1 µM): 2.63%
- viability, T/C (second compound 0.949 µM, first compound 0.316 µM): 1.42%
- viability, T/C (second compound 0.949 µM, first compound 1 µM): 0.49%
- viability, T/C (second compound 3 µM, first compound 0.00316 µM): 4.48%
- viability, T/C (second compound 3 µM, first compound 0.01 µM): 3.3%
- viability, T/C (second compound 3 µM, first compound 0.0316 µM): 2.05%
- viability, T/C (second compound 3 µM, first compound 0.1 µM): 1.31%
- viability, T/C (second compound 3 µM, first compound 0.316 µM): 0.47%
- viability, T/C (second compound 3 µM, first compound 1 µM): 0.37%

Compound: C=CC(=O)N1CCN(c2nc(=O)n(-c3c(C)ccnc3C(C)C)c3nc(-c4c(O)cccc4F)c(F)cc23)C(C)C1 (centres undefined)
- viability, T/C (compound 0.0316 µM): 79% and 84.1% and 96.8%
- viability, T/C (compound 0.1 µM): 81.7% and 85.2% and 87.5%
- viability, T/C (compound 0.316 µM): 63.5% and 71.4% and 76%
- viability, T/C (compound 1 µM): 71.2% and 69.4% and 84.9%
- viability, T/C (compound 3.16 µM): 66.3% and 67.2% and 77.7%
- viability, T/C (compound 10 µM): 60.9% and 59.4% and 66%
- IC50 (curve of compound): > 10000 nM

Compound: Cc1nc(N2CCC3(CC2)COC(C)C3N)c(CO)nc1Sc1ccnc(N)c1Cl (centres undefined) + Cc1c(S(C)(=O)=O)c(-c2cc(F)cc(N3CCN(c4ccc(NS(=O)(=O)c5ccc(NC(CCN6CCC(C(=O)OCCCP(=O)(O)O)CC6)CSc6ccccc6)c(S(=O)(=O)C(F)(F)F)c5)cc4)CC3)c2)c(-c2ccc(Cl)cc2)n1C(C)C
- IC50 [1]: 1560 nM
- IC50 [2]: 625 nM
- IC50 [3]: 594 nM
- IC50 [4]: 829 nM
- IC50 [5]: > 3000 nM
- viability, T/C (second compound 0.1 µM, first compound 0.00949 µM): 98.7%
- viability, T/C (second compound 0.1 µM, first compound 0.03 µM): 90.4%
- viability, T/C (second compound 0.1 µM, first compound 0.0949 µM): 83.8%
- viability, T/C (second compound 0.1 µM, first compound 0.3 µM): 65.8%
- viability, T/C (second compound 0.1 µM, first compound 0.949 µM): 54.8%
- viability, T/C (second compound 0.1 µM, first compound 3 µM): 44.5%
- viability, T/C (second compound 0.316 µM, first compound 0.00949 µM): 94.9%
- viability, T/C (second compound 0.316 µM, first compound 0.03 µM): 94.2%
- viability, T/C (second compound 0.316 µM, first compound 0.0949 µM): 70.2%
- viability, T/C (second compound 0.316 µM, first compound 0.3 µM): 59.5%
- viability, T/C (second compound 0.316 µM, first compound 0.949 µM): 46.6%
- viability, T/C (second compound 0.316 µM, first compound 3 µM): 38.9%
- viability, T/C (second compound 1 µM, first compound 0.00949 µM): 95.3%
- viability, T/C (second compound 1 µM, first compound 0.03 µM): 93.6%
- viability, T/C (second compound 1 µM, first compound 0.0949 µM): 68.6%
- viability, T/C (second compound 1 µM, first compound 0.3 µM): 58.4%
- viability, T/C (second compound 1 µM, first compound 0.949 µM): 47.1%
- viability, T/C (second compound 1 µM, first compound 3 µM): 38.3%
- viability, T/C (second compound 3.16 µM, first compound 0.00949 µM): 98%
- viability, T/C (second compound 3.16 µM, first compound 0.03 µM): 92%
- viability, T/C (second compound 3.16 µM, first compound 0.0949 µM): 65.1%
- viability, T/C (second compound 3.16 µM, first compound 0.3 µM): 64.6%
- viability, T/C (second compound 3.16 µM, first compound 0.949 µM): 47%
- viability, T/C (second compound 3.16 µM, first compound 3 µM): 42.5%
- viability, T/C (second compound 10 µM, first compound 0.00949 µM): 179%
- viability, T/C (second compound 10 µM, first compound 0.03 µM): 178%
- viability, T/C (second compound 10 µM, first compound 0.0949 µM): 145%
- viability, T/C (second compound 10 µM, first compound 0.3 µM): 142%
- viability, T/C (second compound 10 µM, first compound 0.949 µM): 138%
- viability, T/C (second compound 10 µM, first compound 3 µM): 117%

Compound: O=C(c1cc(Cc2n[nH]c(=O)c3ccccc23)ccc1F)N1CCN(C(=O)C2CC2)CC1 + Cc1c(S(C)(=O)=O)c(-c2cc(F)cc(N3CCN(c4ccc(NS(=O)(=O)c5ccc(NC(CCN6CCC(C(=O)OCCCP(=O)(O)O)CC6)CSc6ccccc6)c(S(=O)(=O)C(F)(F)F)c5)cc4)CC3)c2)c(-c2ccc(Cl)cc2)n1C(C)C
- IC50 [1]: 3740 nM
- IC50 [2]: 2530 nM
- IC50 [3]: 2490 nM
- IC50 [4]: 2500 nM
- IC50 [5]: 3150 nM
- viability, T/C (second compound 0.1 µM, first compound 0.0316 µM): 103%
- viability, T/C (second compound 0.1 µM, first compound 0.1 µM): 102%
- viability, T/C (second compound 0.1 µM, first compound 0.316 µM): 88.6%
- viability, T/C (second compound 0.1 µM, first compound 1 µM): 88.1%
- viability, T/C (second compound 0.1 µM, first compound 3.16 µM): 55.5%
- viability, T/C (second compound 0.1 µM, first compound 10 µM): 9.69%
- viability, T/C (second compound 0.316 µM, first compound 0.0316 µM): 85.4%
- viability, T/C (second compound 0.316 µM, first compound 0.1 µM): 89.2%
- viability, T/C (second compound 0.316 µM, first compound 0.316 µM): 86.4%
- viability, T/C (second compound 0.316 µM, first compound 1 µM): 75.4%
- viability, T/C (second compound 0.316 µM, first compound 3.16 µM): 43.9%
- viability, T/C (second compound 0.316 µM, first compound 10 µM): 7.08%
- viability, T/C (second compound 1 µM, first compound 0.0316 µM): 94.5%
- viability, T/C (second compound 1 µM, first compound 0.1 µM): 102%
- viability, T/C (second compound 1 µM, first compound 0.316 µM): 86.9%
- viability, T/C (second compound 1 µM, first compound 1 µM): 76.9%
- viability, T/C (second compound 1 µM, first compound 3.16 µM): 43%
- viability, T/C (second compound 1 µM, first compound 10 µM): 6.29%
- viability, T/C (second compound 3.16 µM, first compound 0.0316 µM): 94%
- viability, T/C (second compound 3.16 µM, first compound 0.1 µM): 89.5%
- viability, T/C (second compound 3.16 µM, first compound 0.316 µM): 86%
- viability, T/C (second compound 3.16 µM, first compound 1 µM): 76%
- viability, T/C (second compound 3.16 µM, first compound 3.16 µM): 43.2%
- viability, T/C (second compound 3.16 µM, first compound 10 µM): 4.54%
- viability, T/C (second compound 10 µM, first compound 0.0316 µM): 164%
- viability, T/C (second compound 10 µM, first compound 0.1 µM): 164%
- viability, T/C (second compound 10 µM, first compound 0.316 µM): 157%
- viability, T/C (second compound 10 µM, first compound 1 µM): 112%
- viability, T/C (second compound 10 µM, first compound 3.16 µM): 49.1%
- viability, T/C (second compound 10 µM, first compound 10 µM): 6.96%

Compound: COc1c(OCCCN2CCOCC2)ccc2c3n(c(=NC(=O)c4cnc(N)nc4)nc12)CCN3
- viability, T/C (compound 0.00316 µM): 93.8% and 96.5% and 105%
- viability, T/C (compound 0.01 µM): 92% and 91.4% and 97.5%
- viability, T/C (compound 0.0316 µM): 71.2% and 78.3% and 85.6%
- viability, T/C (compound 0.1 µM): 51.4% and 57.8% and 60.5%
- viability, T/C (compound 0.316 µM): 23.9% and 27.6% and 26.7%
- viability, T/C (compound 1 µM): 6.91% and 7.65% and 9.2%
- IC50 (curve of compound): 99.9 nM and 131 nM and 140 nM
